Molecular target: Human neutrophil elastase (Homo sapiens (Human), UniProt P08246)
Experiment: Human Neutrophil Elastase Assay
Format: biochemical
Conditions: substrate MeOSuc-Ala-Ala-Pro-Val-AMC 250 μM, pH 7.5

Sequence of Human neutrophil elastase (P08246 30-247): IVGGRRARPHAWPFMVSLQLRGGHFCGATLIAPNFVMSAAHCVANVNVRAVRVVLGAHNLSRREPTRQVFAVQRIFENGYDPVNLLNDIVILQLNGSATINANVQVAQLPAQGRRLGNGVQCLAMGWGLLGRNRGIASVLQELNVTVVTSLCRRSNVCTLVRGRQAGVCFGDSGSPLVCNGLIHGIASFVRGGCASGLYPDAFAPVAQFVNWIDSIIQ

IC50 [nM]	Compound
1.4	CNCCN(C)C(=O)c1cc(C#N)ccc1C1C2=C(CCC2=O)N(c2cccc(C(F)(F)F)c2)C(=O)N1C (centres unmarked) [Example 4.10]
7.3	CC(C)N1CCN(C(=O)c2cc(C#N)ccc2C2C3=C(CCC3=O)N(c3cccc(C(F)(F)F)c3)C(=O)N2C)CC1 (centres unmarked) [Example 3.4]
10.7	CN1C(=O)N(c2cccc(C(F)(F)F)c2)C2=C(C(=O)CCC2)C1c1ccc(C#N)cc1C1=CCN(C(=O)OC(C)(C)C)C1 (centres unmarked) [Example 15.6]
3.3	CN1C(=O)N(c2cccc(C(F)(F)F)c2)C2=C(C(=O)CC2)C1c1ccc(C#N)cc1-c1ccco1 (centres unmarked) [Example 11.8]
6.2	CN1C(=O)N(c2cccc(C(F)(F)F)c2)C2=C(C(=O)CC2)C1c1ccc(C#N)cc1C(=O)NCC(C)(C)N (centres unmarked) [Example 4.11]
3.3	CN1C(=O)N(c2cccc(C(F)(F)F)c2)C2=C(C(=O)CC2)C1c1ccc(C#N)cc1C(=O)N1CC[C@H](N)C1 (some centres unmarked) [Example 4.7]
3.3	CN1C(=O)N(c2cccc(C(F)(F)F)c2)C2=C(C(=O)CC2)C1c1ccc(C#N)cc1CNC(C)(C)C (centres unmarked) [Example 9.2]
2.1	CC(C)NCc1cc(C#N)ccc1C1C2=C(CCC2=O)N(c2cccc(C(F)(F)F)c2)C(=O)N1C (centres unmarked) [Example 9.1]
8.7	CN1C(=O)N(c2cccc(C(F)(F)F)c2)C2=C(C(=O)CC2)C1c1ccc(C#N)cc1-c1ccn(C)n1 (centres unmarked) [Example 11.1]
3.5	CN1C(=O)N(c2cccc(C(F)(F)F)c2)C2=C(C(=O)CCC2)C1c1ccc(C#N)cc1C(=O)N1CCNCC1 (centres unmarked) [Example 6.3]
7.1	CN1C(=O)N(c2cccc(C(F)(F)F)c2)C2=C(C(=O)CC2)C1c1ccc(C#N)cc1C(=O)NC1CCNCC1 (centres unmarked) [Example 4.2]
< 1	CN1C(=O)N(c2cccc(C(F)(F)F)c2)C2=C(C(=O)CCC2)C1c1ccc(C#N)cc1C(N)=O (single isomer, unassigned) [Example 7a, 5-Cyano-2-[3-methyl-2,5-dioxo-1-(3-trifluoromethyl-phenyl)-1,2,3,4,5,6,7,8-octahydro-quinazolin-4-yl]-benzamide]
3.1	CN1C(=O)N(c2cccc(C(F)(F)F)c2)C2=C(C(=O)CC2)C1c1ccc(C#N)cc1-c1cccnc1 (centres unmarked) [Example 11.10]
1.5	CN1C(=O)N(c2cccc(C(F)(F)F)c2)C2=C(C(=O)CCC2)C1c1ccc(C#N)cc1C1=COCC1 (centres unmarked) [Example 15.10]
4.6	CN1C(=O)N(c2ccnc(C(F)(F)F)c2)C2=C(C(=O)CC2)C1c1ccc(C#N)cc1C1=CCN(C(=O)OC(C)(C)C)CC1 (centres unmarked) [Example 17.2, 4-{5-Cyano-2-[3-methyl-2,5-dioxo-1-(2-trifluoromethyl-pyridin-4-yl)-2,3,4,5,6,7-hexahydro-1H-cyclopentapyrimidin-4-yl]-phenyl}-3,6-dihydro-2H-pyridine-1-carboxylic acid tert-butyl ester]
2.9	CN1C(=O)N(c2cccc(C(F)(F)F)c2)C2=C(C(=O)CC2)C1c1ccc(C#N)cc1CNC1CCOCC1 (centres unmarked) [Example 9.3]
50.2	CN1C(=O)N(c2ccnc(C(F)(F)F)c2)C2=C(C(=O)CC2)C1c1ccc(C#N)cc1-c1ccn(C)n1 (centres unmarked) [Example 17.1]
3.8	CN[C@H]1CCN(C(=O)c2cc(C#N)ccc2C2C3=C(CCC3=O)N(c3cccc(C(F)(F)F)c3)C(=O)N2C)C1 (some centres unmarked) [Example 4.12]
1.9	CN1C(=O)N(c2cccc(C(F)(F)F)c2)C2=C(C(=O)CCC2)C1c1ccc(C#N)cc1-c1cncs1 (centres unmarked) [Example 15.3]
5.9	CN1C(=O)N(c2cccc(C(F)(F)F)c2)C2=C(C(=O)CC2)C1c1ccc(C#N)cc1C(=O)N1CC[C@@H](N)C1 (some centres unmarked) [Example 4.8]
16	CN1C(=O)N(c2cccc(C(F)(F)F)c2)C2=C(C(=O)CC2)C1c1ccc(C#N)cc1-c1ccc2occc2c1 (centres unmarked) [Example 11.15]
< 1	CN1C(=O)N(c2cccc(C(F)(F)F)c2)C2=C(C(=O)CC2)C1c1ccc(C#N)cc1C1=CCNCC1 (centres unmarked) [Example 14.2]
7.5	CN1C(=O)N(c2cccc(C(F)(F)F)c2)C2=C(C(=O)CC2)C1c1ccc(C#N)cc1C(=O)N1CCN2CCCC2C1 (centres unmarked) [Example 3.3]

More lines, now with the values behind:

Compound	IC50 [nM]
CN1C(=O)N(c2cccc(C(F)(F)F)c2)C2=C(C(=O)CC2)C1c1ccc(C#N)cc1C(=O)N1CCC(O)CC1 (centres unmarked) [Example 1.22]	10.3
CN1C(=O)N(c2cccc(C(F)(F)F)c2)C2=C(C(=O)CC2)C1c1ccc(C#N)cc1C(=O)NC1COC1 (centres unmarked) [Example 1.12]	5.3
CN1C(=O)N(c2cccc(C(F)(F)F)c2)C2=C(C(=O)CC2)C1c1ccc(C#N)cc1C(=O)NCc1ccncc1 (centres unmarked) [Example 1.48]	4.1
CN1C(=O)N(c2cccc(C(F)(F)F)c2)C2=C(C(=O)CC2)C1c1ccc(C#N)cc1C(=O)NCc1ccoc1 (centres unmarked) [Example 1.37]	3.4
CN1C(=O)N(c2cccc(C(F)(F)F)c2)C2=C(C(=O)CC2)C1c1ccc(C#N)cc1C(=O)NCc1cnoc1 (centres unmarked) [Example 1.42]	1.9
CN1C(=O)N(c2cccc(C(F)(F)F)c2)C2=C(C(=O)CC2)C1c1ccc(C#N)cc1C(=O)NCc1cn[nH]c1 (centres unmarked) [Example 1.38]	5
CN1C(=O)N(c2cccc(C(F)(F)F)c2)C2=C(C(=O)CC2)C1c1ccc(C#N)cc1C(=O)NCCO (centres unmarked) [Example 1.8]	5.7
CN1C(=O)N(c2cccc(C(F)(F)F)c2)C2=C(C(=O)CC2)C1c1ccc(C#N)cc1C(=O)NC1CC1 (centres unmarked) [Example 1.6]	6.3
CN1CCN(C(=O)c2cc(C#N)ccc2[C@@H]2C3=C(CCC3=O)N(c3cccc(C(F)(F)F)c3)C(=O)N2C)CC1 [Example 2.4]	3.1
CN(C)CCNC(=O)c1cc(C#N)ccc1C1C2=C(CCC2=O)N(c2cccc(C(F)(F)F)c2)C(=O)N1C (centres unmarked) [Example 1.29]	4.8
CN1C(=O)N(c2cccc(C(F)(F)F)c2)C2=C(C(=O)CC2)C1c1ccc(C#N)cc1C(=O)NCc1ncco1 (centres unmarked) [Example 1.41]	3.8
CN1C(=O)N(c2cccc(C(F)(F)F)c2)C2=C(C(=O)CC2)C1c1ccc(C#N)cc1C(=O)N1CCc2nocc2C1 (centres unmarked) [Example 1.69]	9.8
CN(Cc1cnn(C)c1)C(=O)c1cc(C#N)ccc1C1C2=C(CCC2=O)N(c2cccc(C(F)(F)F)c2)C(=O)N1C (centres unmarked) [Example 1.27]	< 1
CN(CCN1CCOCC1)C(=O)c1cc(C#N)ccc1C1C2=C(CCC2=O)N(c2cccc(C(F)(F)F)c2)C(=O)N1C (centres unmarked) [Example 1.81]	1.6
CN(Cc1nncn1C)C(=O)c1cc(C#N)ccc1C1C2=C(CCC2=O)N(c2cccc(C(F)(F)F)c2)C(=O)N1C (centres unmarked) [Example 1.75]	1.4
CN1C(=O)N(c2cccc(C(F)(F)F)c2)C2=C(C(=O)CC2)C1c1ccc(C#N)cc1C(=O)NCC#N (centres unmarked) [Example 1.5]	3.1
CN(Cc1ccnn1C)C(=O)c1cc(C#N)ccc1C1C2=C(CCC2=O)N(c2cccc(C(F)(F)F)c2)C(=O)N1C (centres unmarked) [Example 1.71]	< 1

Compound	IC50 [nM]
CN1C(=O)N(c2cccc(C(F)(F)F)c2)C2=C(C(=O)CC2)C1c1ccc(C#N)cc1C(=O)NCCS(C)(=O)=O (centres unmarked) [Example 1.26]	4.6
CN1C(=O)N(c2cccc(C(F)(F)F)c2)C2=C(C(=O)CC2)C1c1ccc(C#N)cc1C(=O)N1Cc2ccncc2C1 (centres unmarked) [Example 1.63]	3.9
CN1C(=O)N(c2cccc(C(F)(F)F)c2)C2=C(C(=O)CCC2)C1c1ccc(C#N)cc1C1=CCNCC1 (centres unmarked) [Example 16, 4-[3-Methyl-2,5-dioxo-1-(3-trifluoromethyl-phenyl)-1,2,3,4,5,6,7,8-octahydro-quinazolin-4-yl]-3-(1,2,3,6-tetrahydro-pyridin-4-yl)-benzonitrile]	< 1
CN1C(=O)N(c2cccc(C(F)(F)F)c2)C2=C(C(=O)CC2)C1c1ccc(C#N)cc1CN1CCOCC1 (centres unmarked) [Example 9, 4-[3-Methyl-2,5-dioxo-1-(3-trifluoromethyl-phenyl)-2,3,4,5,6,7-hexahydro-1H-cyclopentapyrimidin-4-yl]-3-morpholin-4-ylmethyl-benzonitrile]	1.4
CN1C(=O)N(c2cccc(C(F)(F)F)c2)C2=C(C(=O)CC2)C1c1ccc(C#N)cc1C(=O)N1CCn2ncnc2C1 (centres unmarked) [Example 1.70]	1.9
CN1C(=O)N(c2cccc(C(F)(F)F)c2)C2=C(C(=O)CC2)C1c1ccc(C#N)cc1C(=O)NC1CCOC1 (centres unmarked) [Example 1.18]	6.9
COCCNC(=O)c1cc(C#N)ccc1C1C2=C(CCC2=O)N(c2cccc(C(F)(F)F)c2)C(=O)N1C (centres unmarked) [Example 1.14]	6.5
CN1C(=O)N(c2cccc(C(F)(F)F)c2)C2=C(C(=O)CC2)C1c1ccc(C#N)cc1C(=O)NCc1cncn1C (centres unmarked) [Example 1.52]	4.2
CN1C(=O)N(c2cccc(C(F)(F)F)c2)C2=C(C(=O)CC2)C1c1ccc(C#N)cc1C(=O)NCc1ccccc1 (centres unmarked) [Example 1.45]	5.3
CN1C(=O)N(c2cccc(C(F)(F)F)c2)C2=C(C(=O)CC2)C1c1ccc(C#N)cc1C(=O)NCc1nncn1C (centres unmarked) [Example 1.61]	6
CN1C(=O)N(c2cccc(C(F)(F)F)c2)C2=C(C(=O)CC2)C1c1ccc(C#N)cc1C(=O)N1CCn2cncc2C1 (centres unmarked) [Example 1.66]	7.1
CN1C(=O)N(c2cccc(C(F)(F)F)c2)C2=C(C(=O)CC2)C1c1ccc(C#N)cc1C(=O)NCc1ccc(C#N)o1 (centres unmarked) [Example 1.64]	6.9
CN1C(=O)N(c2cccc(C(F)(F)F)c2)C2=C(C(=O)CC2)C1c1ccc(C#N)cc1C(=O)NCc1ccnnc1 (centres unmarked) [Example 1.49]	5
CN1C(=O)N(c2cccc(C(F)(F)F)c2)C2=C(C(=O)CC2)C1c1ccc(C#N)cc1C(=O)NC1CCC(O)C1 (centres unmarked) [Example 3, 5-Cyano-N-(3-hydroxy-cyclopentyl)-2-[3-methyl-2,5-dioxo-1-(3-trifluoromethyl-phenyl)-2,3,4,5,6,7-hexahydro-1H-cyclopentapyrimidin-4-yl]-benzamide]	7.6
COCCCNC(=O)c1cc(C#N)ccc1C1C2=C(CCC2=O)N(c2cccc(C(F)(F)F)c2)C(=O)N1C (centres unmarked) [Example 1.20]	5.7
CN1C(=O)N(c2ccnc(C(F)(F)F)c2)C2=C(C(=O)CC2)[C@H]1c1ccc(C#N)cc1C(N)=O [Example 8, 5-Cyano-2-[(R)-3-methyl-1-(2-trifluoromethyl-pyridin-4-yl)-2,5-dioxo-2,3,4,5,6,7-hexahydro-1H-cyclopentapyrimidin-4-yl]-benzamide]	41
